Source: patent US20240270762A1, “PENICILLIN-BINDING PROTEIN INHIBITORS” (priority 2021, published 2024)
Converted amounts (≈) assume the structure as drawn. Like-named read-outs stand apart in the source and are kept apart here.

Assays:
[1] = target: T1, PBP3 from Acinetobacter baumannii (ATCC 19606) (Acinetobacter baumannii, UniProt A0ABX6CK25); test: Bocillin-FL fluorescence polarization competition binding, A. baumannii PBP3; conditions: fluorescence polarization competition binding assay using Bocillin-FL; read-out: A. baumannii PBP3 Potency
T1 sequence (A0ABX6CK25 64-610): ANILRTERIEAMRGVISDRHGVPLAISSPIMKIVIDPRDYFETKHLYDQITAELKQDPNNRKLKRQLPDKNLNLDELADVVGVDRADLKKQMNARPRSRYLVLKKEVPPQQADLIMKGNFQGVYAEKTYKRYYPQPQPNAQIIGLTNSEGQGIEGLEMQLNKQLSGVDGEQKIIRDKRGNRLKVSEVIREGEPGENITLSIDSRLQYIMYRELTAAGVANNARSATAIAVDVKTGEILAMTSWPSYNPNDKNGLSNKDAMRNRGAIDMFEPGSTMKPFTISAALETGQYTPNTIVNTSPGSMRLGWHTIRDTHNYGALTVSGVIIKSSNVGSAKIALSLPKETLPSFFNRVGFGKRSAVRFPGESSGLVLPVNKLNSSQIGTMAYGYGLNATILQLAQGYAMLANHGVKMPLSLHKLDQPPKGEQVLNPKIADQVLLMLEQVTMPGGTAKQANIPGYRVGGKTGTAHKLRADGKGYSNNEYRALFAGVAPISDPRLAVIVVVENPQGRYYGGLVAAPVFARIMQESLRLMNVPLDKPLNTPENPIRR
Procedure, shortened: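 Purified PBPs pre-incubated with inhibitor (E. coli PBP3 1.5 μM, 30 min; P. aeruginosa PBP3 0.75 μM, A. baumannii PBP1a 1 μM and PBP3 0.2 μM, 15 min), then Bocillin-FL 0.1 μM (0.05 μM for PBP1a) added; FP read up to 60 min. EC50 = concentration halving bound Bocillin-FL.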

P. aeruginosa CDC-0095 = test: microbe, parasite or virus in culture; type: cell-based; conditions: Pseudomonas aeruginosa, CDC0095, read-out: Minimum inhibitory concentration, P. aeruginosa CDC-0095
A. baumannii 1258916 = test: microbe, parasite or virus in culture; type: cell-based, Acinetobacter baumannii; conditions: Acinetobacter baumannii, 1258916, read-out: MIC, A. baumannii 1258916
A. baumannii CDC-0036 = test: microbe, parasite or virus in culture; type: cell-based; conditions: Acinetobacter baumannii, CDC0036, read-out: MIC, A. baumannii CDC-0036
N. gonorrhoeae FA1090 = test: Liquid broth MIC in Fastidious broth; conditions: Neisseria gonorrhoeae
N. gonorrhoeae WHO G = test: Liquid broth MIC in Fastidious broth; conditions: Neisseria gonorrhoeae
N. gonorrhoeae WHO M = test: Liquid broth MIC in Fastidious broth; conditions: Neisseria gonorrhoeae
N. gonorrhoeae WHO K = test: Liquid broth MIC in Fastidious broth; conditions: Neisseria gonorrhoeae
N. gonorrhoeae WHO X = test: Liquid broth MIC in Fastidious broth; conditions: Neisseria gonorrhoeae
N. gonorrhoeae WHO Z = test: Liquid broth MIC in Fastidious broth; conditions: Neisseria gonorrhoeae
N. gonorrhoeae WHO Q = test: Liquid broth MIC in Fastidious broth; conditions: Neisseria gonorrhoeae
[2] = FA1090, read-out: Minimum Inhibitory Concentration (MIC), N. gonorrhoeae FA 1090
[3] = read-out: Minimum Inhibitory Concentration (MIC), N. gonorrhoeae WHO G
[4] = read-out: Minimum Inhibitory Concentration (MIC), N. gonorrhoeae WHO M
[5] = read-out: Minimum Inhibitory Concentration (MIC), N. gonorrhoeae WHO K
[6] = read-out: Minimum Inhibitory Concentration (MIC), N. gonorrhoeae WHO X
[7] = read-out: Minimum Inhibitory Concentration (MIC), N. gonorrhoeae WHO Z
[8] = read-out: Minimum Inhibitory Concentration (MIC), N. gonorrhoeae WHO Q

O=C(NCCCN1CCN(C(=O)NC(C(=O)N[C@H]2Cc3ccc(F)c(C(=O)O)c3OB2O)c2cc(F)c(O)c(O)c2Cl)C(=O)C1=O)c1ccc(O)cc1 (stereo partly drawn) [Example 203, (3R)-3-(2-(2-chloro-5-fluoro-3,4-dihydroxyphenyl)-2-(4-(3-(4-hydroxybenzamido)propyl)-2,3-dioxopiperazine-1-carboxamido)acetamido)-7-fluoro-2-hydroxy-3,4-dihydro-2H-benzo[e][1,2]oxaborinine-8-carboxylic acid]
IC50 [1]: < 10 µM
MIC (P. aeruginosa CDC-0095): 2 to 4 µg/mL (≈ 2.63 to 5.26 µM)
MIC (A. baumannii 1258916): < 1 µg/mL
MIC (A. baumannii CDC-0036): < 1 µg/mL
MIC (N. gonorrhoeae FA1090; [2]): < 1 µg/mL
MIC (N. gonorrhoeae WHO G; [3]): 4 to 8 µg/mL (≈ 5.26 to 10.5 µM)
MIC (N. gonorrhoeae WHO M; [4]): 4 to 8 µg/mL (≈ 5.26 to 10.5 µM)
MIC (N. gonorrhoeae WHO K; [5]): > 64 µg/mL
MIC (N. gonorrhoeae WHO X; [6]): > 64 µg/mL
MIC (N. gonorrhoeae WHO Z; [7]): 16 to 32 µg/mL (≈ 21.1 to 42.1 µM)
MIC (N. gonorrhoeae WHO Q; [8]): 16 to 32 µg/mL (≈ 21.1 to 42.1 µM)

O=C(NCCN1CCN(C(=O)NC(C(=O)N[C@H]2Cc3ccc(F)c(C(=O)O)c3OB2O)c2cc(F)c(O)c(O)c2Cl)C(=O)C1=O)c1cccc(O)c1 (stereo partly drawn) [Example 215, (3R)-3-(2-(2-chloro-5-fluoro-3,4-dihydroxyphenyl)-2-(4-(2-(3-hydroxybenzamido)ethyl)-2,3-dioxopiperazine-1-carboxamido)acetamido)-7-fluoro-2-hydroxy-3,4-dihydro-2H-benzo[e][1,2]oxaborinine-8-carboxylic acid]
IC50 [1]: < 10 µM
MIC (P. aeruginosa CDC-0095): 2 to 4 µg/mL (≈ 2.68 to 5.36 µM)
MIC (A. baumannii 1258916): 2 to 4 µg/mL (≈ 2.68 to 5.36 µM)
MIC (A. baumannii CDC-0036): 8 to 16 µg/mL (≈ 10.7 to 21.5 µM)
MIC (N. gonorrhoeae FA1090; [2]): 1 to 2 µg/mL (≈ 1.34 to 2.68 µM)
MIC (N. gonorrhoeae WHO G; [3]): 4 to 8 µg/mL (≈ 5.36 to 10.7 µM)
MIC (N. gonorrhoeae WHO M; [4]): 4 to 8 µg/mL (≈ 5.36 to 10.7 µM)
MIC (N. gonorrhoeae WHO K; [5]): > 64 µg/mL
MIC (N. gonorrhoeae WHO X; [6]): > 64 µg/mL
MIC (N. gonorrhoeae WHO Z; [7]): 16 to 32 µg/mL (≈ 21.5 to 42.9 µM)
MIC (N. gonorrhoeae WHO Q; [8]): > 64 µg/mL

CN(CCN1CCN(C(=O)N[C@@H](C(=O)N[C@H]2Cc3ccc(F)c(C(=O)O)c3OB2O)c2cc(F)c(O)c(O)c2Cl)C(=O)C1=O)Cc1nccs1 [Example 200, (R)-3-((R)-2-(2-chloro-5-fluoro-3,4-dihydroxyphenyl)-2-(4-(2-(methyl(thiazol-2-ylmethyl)amino)ethyl)-2,3-dioxopiperazine-1-carboxamido)acetamido)-7-fluoro-2-hydroxy-3,4-dihydro-2H-benzo[e][1,2]oxaborinine-8-carboxylic acid]
IC50 [1]: < 10 µM
MIC (P. aeruginosa CDC-0095): < 1 µg/mL
MIC (A. baumannii 1258916): < 1 µg/mL
MIC (A. baumannii CDC-0036): 2 to 4 µg/mL (≈ 2.71 to 5.43 µM)
MIC (N. gonorrhoeae FA1090; [2]): 1 to 2 µg/mL (≈ 1.36 to 2.71 µM)
MIC (N. gonorrhoeae WHO G; [3]): 4 to 8 µg/mL (≈ 5.43 to 10.9 µM)
MIC (N. gonorrhoeae WHO M; [4]): 4 to 8 µg/mL (≈ 5.43 to 10.9 µM)
MIC (N. gonorrhoeae WHO K; [5]): 16 to 32 µg/mL (≈ 21.7 to 43.4 µM)
MIC (N. gonorrhoeae WHO X; [6]): > 64 µg/mL
MIC (N. gonorrhoeae WHO Z; [7]): 16 to 32 µg/mL (≈ 21.7 to 43.4 µM)
MIC (N. gonorrhoeae WHO Q; [8]): 16 to 32 µg/mL (≈ 21.7 to 43.4 µM)

O=C(NCCN1CCN(C(=O)NC(C(=O)N[C@H]2Cc3ccc(F)c(C(=O)O)c3OB2O)c2cc(F)c(O)c(O)c2Cl)C(=O)C1=O)c1ccccc1 (stereo partly drawn) [Example 207, (3R)-3-(2-(4-(2-benzamidoethyl)-2,3-dioxopiperazine-1-carboxamido)-2-(2-chloro-5-fluoro-3,4-dihydroxyphenyl)acetamido)-7-fluoro-2-hydroxy-3,4-dihydro-2H-benzo[e][1,2]oxaborinine-8-carboxylic acid]
IC50 [1]: < 10 µM
MIC (P. aeruginosa CDC-0095): 2 to 4 µg/mL (≈ 2.74 to 5.48 µM)
MIC (A. baumannii 1258916): 2 to 4 µg/mL (≈ 2.74 to 5.48 µM)
MIC (A. baumannii CDC-0036): 8 to 16 µg/mL (≈ 11 to 21.9 µM)
MIC (N. gonorrhoeae FA1090; [2]): 4 to 8 µg/mL (≈ 5.48 to 11 µM)
MIC (N. gonorrhoeae WHO G; [3]): 16 to 32 µg/mL (≈ 21.9 to 43.8 µM)
MIC (N. gonorrhoeae WHO M; [4]): 16 to 32 µg/mL (≈ 21.9 to 43.8 µM)
MIC (N. gonorrhoeae WHO K; [5]): > 64 µg/mL
MIC (N. gonorrhoeae WHO X; [6]): > 64 µg/mL
MIC (N. gonorrhoeae WHO Z; [7]): 16 to 32 µg/mL (≈ 21.9 to 43.8 µM)
MIC (N. gonorrhoeae WHO Q; [8]): 16 to 32 µg/mL (≈ 21.9 to 43.8 µM)

O=C(NCCS(=O)(=O)N1CCN(C(=O)NC(C(=O)N[C@H]2Cc3ccc(F)c(C(=O)O)c3OB2O)c2cc(F)c(O)c(O)c2Cl)C1=O)c1cccnc1 (stereo partly drawn) [Example 262, (3R)-3-(2-(2-chloro-5-fluoro-3,4-dihydroxyphenyl)-2-(3-((2-(nicotinamido)ethyl)sulfonyl)-2-oxoimidazolidine-1-carboxamido)acetamido)-7-fluoro-2-hydroxy-3,4-dihydro-2H-benzo[e][1,2]oxaborinine-8-carboxylic acid]
IC50 [1]: < 10 µM
MIC (P. aeruginosa CDC-0095): 2 to 4 µg/mL (≈ 2.61 to 5.22 µM)
MIC (A. baumannii 1258916): < 1 µg/mL
MIC (A. baumannii CDC-0036): < 1 µg/mL
MIC (N. gonorrhoeae FA1090; FA1090, read-out: Minimum Inhibitory Concentration, FA 1090): 4 to 8 µg/mL (≈ 5.22 to 10.4 µM)
MIC (N. gonorrhoeae WHO G; read-out: Minimum Inhibitory Concentration, WHO G): 16 to 32 µg/mL (≈ 20.9 to 41.7 µM)
MIC (N. gonorrhoeae WHO M; read-out: Minimum Inhibitory Concentration, WHO M): 16 to 32 µg/mL (≈ 20.9 to 41.7 µM)
MIC (N. gonorrhoeae WHO K; read-out: Minimum Inhibitory Concentration, WHO K): > 64 µg/mL
MIC (N. gonorrhoeae WHO X; read-out: Minimum Inhibitory Concentration, WHO X): > 64 µg/mL
MIC (N. gonorrhoeae WHO Z; read-out: Minimum Inhibitory Concentration, WHO Z): 16 to 32 µg/mL (≈ 20.9 to 41.7 µM)
MIC (N. gonorrhoeae WHO Q; read-out: Minimum Inhibitory Concentration, WHO Q): 16 to 32 µg/mL (≈ 20.9 to 41.7 µM)
